Experimental data taken from patent publication US20260216207A1, “7-CARBONYLSTAUROSPORINE DERIVATIVE, PREPARATION METHOD THEREFOR, AND USE THEREOF” (HANGZHOU KEXING BIOCHEM. CO., LTD., priority 2023, published 2026).

How the values were obtained:
Format in all cases: biochemical
[1] = target: T1, FLT3 (Homo sapiens, UniProt P36888); assay: HTRF KinEASE kinase assay, FLT3 (kinase selectivity); conditions: HTRF KinEASE kit, 3 duplicate wells; read-out: FLT3 IC50
T1 sequence (P36888 27-993): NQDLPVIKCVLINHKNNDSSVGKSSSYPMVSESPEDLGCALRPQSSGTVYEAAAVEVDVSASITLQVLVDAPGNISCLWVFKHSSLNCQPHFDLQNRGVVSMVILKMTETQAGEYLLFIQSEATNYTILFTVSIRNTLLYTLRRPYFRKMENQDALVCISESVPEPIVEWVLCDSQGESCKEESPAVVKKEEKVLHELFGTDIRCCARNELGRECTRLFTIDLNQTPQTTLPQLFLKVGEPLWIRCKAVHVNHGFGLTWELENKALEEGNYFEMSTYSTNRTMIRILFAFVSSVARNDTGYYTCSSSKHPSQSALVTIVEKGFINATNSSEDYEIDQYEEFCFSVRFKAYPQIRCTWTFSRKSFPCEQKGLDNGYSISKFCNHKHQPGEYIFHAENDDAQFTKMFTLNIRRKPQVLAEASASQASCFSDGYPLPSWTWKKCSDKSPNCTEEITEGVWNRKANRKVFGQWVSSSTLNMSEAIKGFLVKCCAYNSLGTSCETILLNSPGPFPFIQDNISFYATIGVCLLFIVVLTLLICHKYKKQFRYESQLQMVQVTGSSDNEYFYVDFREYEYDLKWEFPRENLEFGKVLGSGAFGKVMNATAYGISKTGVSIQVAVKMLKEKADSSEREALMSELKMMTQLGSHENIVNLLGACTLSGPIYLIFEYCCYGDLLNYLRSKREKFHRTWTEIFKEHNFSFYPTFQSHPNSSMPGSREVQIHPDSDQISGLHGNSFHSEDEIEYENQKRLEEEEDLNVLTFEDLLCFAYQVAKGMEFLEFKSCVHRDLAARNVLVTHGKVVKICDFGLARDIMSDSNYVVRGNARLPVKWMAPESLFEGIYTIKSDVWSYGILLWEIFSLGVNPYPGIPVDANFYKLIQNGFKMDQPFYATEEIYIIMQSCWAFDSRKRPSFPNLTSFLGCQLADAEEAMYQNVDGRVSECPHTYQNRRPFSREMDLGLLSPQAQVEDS
Experimental: (§1) Inhibitory activities against PIM-1, TRKA, TRKB, FLT3, PKCδ, PKCε, PKCη, PAK4, PLK1, ROCK2, and IKKβ kinases were all determined using an HTRF®KinEASE™ kinase assay kit based on a time-resolved fluorescence technology. 7-carbonylstaurosporine (7OSTA) and TP-3654 were used as positive controls, and 3 duplicate wells were set in parallel. […] A signal ratio was calculated as F2/F1×10000, and then an IC50 value was calculated using Graphpad Prism 8 software.

[2] = target: PAK4 (Homo sapiens, UniProt O96013); assay: HTRF KinEASE kinase assay, PAK4 (kinase selectivity); conditions: HTRF KinEASE kit, 3 duplicate wells; read-out: PAK4 IC50
Sequence of PAK4 (O96013 whole entry, species assumed): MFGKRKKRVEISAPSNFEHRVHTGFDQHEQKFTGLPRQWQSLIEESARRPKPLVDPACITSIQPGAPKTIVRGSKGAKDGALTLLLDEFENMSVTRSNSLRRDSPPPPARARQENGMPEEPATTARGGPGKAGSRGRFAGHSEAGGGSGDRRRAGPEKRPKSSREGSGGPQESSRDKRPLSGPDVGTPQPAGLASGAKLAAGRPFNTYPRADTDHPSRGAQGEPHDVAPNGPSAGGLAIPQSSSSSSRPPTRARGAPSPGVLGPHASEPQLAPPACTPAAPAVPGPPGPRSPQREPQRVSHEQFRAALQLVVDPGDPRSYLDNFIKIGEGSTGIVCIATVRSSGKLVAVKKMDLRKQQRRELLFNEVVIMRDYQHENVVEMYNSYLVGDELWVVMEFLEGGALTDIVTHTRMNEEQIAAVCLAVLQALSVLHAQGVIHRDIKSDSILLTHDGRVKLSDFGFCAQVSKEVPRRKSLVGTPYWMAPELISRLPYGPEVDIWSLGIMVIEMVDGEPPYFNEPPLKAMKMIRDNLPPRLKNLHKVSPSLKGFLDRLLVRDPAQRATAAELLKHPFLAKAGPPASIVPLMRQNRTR
Experimental: as §1

[3] = target: ROCK2 (Homo sapiens, UniProt O75116); assay: HTRF KinEASE kinase assay, ROCK2 (kinase selectivity); conditions: HTRF KinEASE kit, 3 duplicate wells; read-out: ROCK2 IC50
Sequence of ROCK2 (O75116 whole entry, species assumed): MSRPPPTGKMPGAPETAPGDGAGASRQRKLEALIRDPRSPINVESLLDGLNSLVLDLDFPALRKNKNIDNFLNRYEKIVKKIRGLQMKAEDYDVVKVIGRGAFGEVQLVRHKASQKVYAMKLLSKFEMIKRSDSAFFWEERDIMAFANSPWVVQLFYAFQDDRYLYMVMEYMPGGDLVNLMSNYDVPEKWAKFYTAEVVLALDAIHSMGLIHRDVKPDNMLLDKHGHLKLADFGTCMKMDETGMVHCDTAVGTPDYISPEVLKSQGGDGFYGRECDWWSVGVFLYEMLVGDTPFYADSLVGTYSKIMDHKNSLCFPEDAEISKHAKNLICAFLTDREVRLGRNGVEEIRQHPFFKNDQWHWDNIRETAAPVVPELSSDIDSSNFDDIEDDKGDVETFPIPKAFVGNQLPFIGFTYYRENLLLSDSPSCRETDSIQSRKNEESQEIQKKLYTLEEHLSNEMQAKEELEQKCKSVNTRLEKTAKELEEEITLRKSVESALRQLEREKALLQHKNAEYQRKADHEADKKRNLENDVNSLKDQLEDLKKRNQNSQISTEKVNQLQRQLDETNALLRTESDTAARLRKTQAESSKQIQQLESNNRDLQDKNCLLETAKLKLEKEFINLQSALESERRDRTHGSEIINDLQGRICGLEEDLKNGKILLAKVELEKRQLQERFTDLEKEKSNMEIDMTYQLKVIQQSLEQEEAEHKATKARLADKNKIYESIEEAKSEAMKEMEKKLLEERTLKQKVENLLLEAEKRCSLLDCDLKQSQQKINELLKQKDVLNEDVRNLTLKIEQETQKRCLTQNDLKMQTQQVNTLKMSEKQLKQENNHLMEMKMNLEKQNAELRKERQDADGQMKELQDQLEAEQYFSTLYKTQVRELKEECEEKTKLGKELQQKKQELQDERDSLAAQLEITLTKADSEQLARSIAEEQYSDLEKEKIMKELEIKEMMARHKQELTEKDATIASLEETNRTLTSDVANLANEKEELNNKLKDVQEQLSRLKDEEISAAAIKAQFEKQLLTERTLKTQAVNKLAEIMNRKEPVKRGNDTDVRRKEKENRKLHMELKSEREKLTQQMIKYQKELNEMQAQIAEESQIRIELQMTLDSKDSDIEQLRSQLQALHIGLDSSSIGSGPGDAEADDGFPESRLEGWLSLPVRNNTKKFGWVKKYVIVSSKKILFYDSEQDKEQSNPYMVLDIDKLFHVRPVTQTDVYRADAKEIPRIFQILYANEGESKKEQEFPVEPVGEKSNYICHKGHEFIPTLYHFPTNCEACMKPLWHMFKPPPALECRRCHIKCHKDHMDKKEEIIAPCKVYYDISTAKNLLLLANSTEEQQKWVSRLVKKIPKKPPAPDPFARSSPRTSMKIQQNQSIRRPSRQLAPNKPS
Experimental: as §1

Q: What does the source list for CO[C@@H]1[C@H](N(C)C(=O)CCC(=O)NO)C[C@H]2O[C@]1(C)n1c3ccccc3c3c4c(c5c6ccccc6n2c5c31)C(=O)NC4=O [Compound 17]?
A: IC50 [1]: 5.3 nM; IC50 [2]: 240 nM; IC50 [3]: 562 nM
